This is an account of results in ChEMBL document CHEMBL1155492, “Evaluation of thieno[3,2-b]pyrrole[3,2-d]pyridazinones as activators of the tumor cell specific M2 isoform of pyruvate kinase” (Bioorg Med Chem Lett, 2010).

Data set [1] addresses Pyruvate kinase PKM (Homo sapiens) (UniProt P14618). As to the kind of experiment: Activation of PKM1 assessed as ATP product formation by luminescent pyruvate kinase-luciferase coupled assay.
Data set [2] shares this target. Put plainly: Maximum activation of human PKM2 assessed as ATP product formation at 57 uM after 1 hr by luminescent pyruvate kinase-luciferase coupled assay relative to fructose-1,6-bis-phosphate.
The target is the same in data set [3]. As to the kind of experiment: Activation of PKM1 assessed as pyruvate formation by fluorescent pyruvate kinase-lactate dehydrogenase coupled assay.
In data set [4] the test system is O=P(O)(O)OC[C@H]1O[C@@](O)(COP(=O)(O)O)[C@@H](O)[C@@H]1O. As to the kind of experiment: Activation of human PKM2 assessed as reduction of Km for phosphoenolpyruvate.
For data set [5] the test system is unchanged. Put plainly: Activation of human PKM2 assessed as effect on Km for ADP.

Activity calls are given as the source filed them. No cut-off for these calls is given here.

Chain of Pyruvate kinase PKM (Homo sapiens) (P14618 2-531 limits assumed): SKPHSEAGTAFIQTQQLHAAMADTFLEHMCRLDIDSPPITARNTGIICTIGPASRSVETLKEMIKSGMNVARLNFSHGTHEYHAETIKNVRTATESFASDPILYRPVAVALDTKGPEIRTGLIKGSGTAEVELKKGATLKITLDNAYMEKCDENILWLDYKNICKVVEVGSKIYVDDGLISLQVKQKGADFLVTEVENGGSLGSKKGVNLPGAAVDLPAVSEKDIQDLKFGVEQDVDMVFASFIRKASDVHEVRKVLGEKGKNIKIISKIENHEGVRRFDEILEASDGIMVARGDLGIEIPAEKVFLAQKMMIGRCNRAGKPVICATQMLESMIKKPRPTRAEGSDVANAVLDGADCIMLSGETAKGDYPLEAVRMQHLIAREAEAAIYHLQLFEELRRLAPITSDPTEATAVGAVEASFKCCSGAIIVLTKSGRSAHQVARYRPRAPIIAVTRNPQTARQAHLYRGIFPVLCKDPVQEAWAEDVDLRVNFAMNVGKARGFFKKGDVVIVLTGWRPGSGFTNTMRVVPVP
Chain of Pyruvate kinase PKM (Homo sapiens), P14618 (P14618 whole entry): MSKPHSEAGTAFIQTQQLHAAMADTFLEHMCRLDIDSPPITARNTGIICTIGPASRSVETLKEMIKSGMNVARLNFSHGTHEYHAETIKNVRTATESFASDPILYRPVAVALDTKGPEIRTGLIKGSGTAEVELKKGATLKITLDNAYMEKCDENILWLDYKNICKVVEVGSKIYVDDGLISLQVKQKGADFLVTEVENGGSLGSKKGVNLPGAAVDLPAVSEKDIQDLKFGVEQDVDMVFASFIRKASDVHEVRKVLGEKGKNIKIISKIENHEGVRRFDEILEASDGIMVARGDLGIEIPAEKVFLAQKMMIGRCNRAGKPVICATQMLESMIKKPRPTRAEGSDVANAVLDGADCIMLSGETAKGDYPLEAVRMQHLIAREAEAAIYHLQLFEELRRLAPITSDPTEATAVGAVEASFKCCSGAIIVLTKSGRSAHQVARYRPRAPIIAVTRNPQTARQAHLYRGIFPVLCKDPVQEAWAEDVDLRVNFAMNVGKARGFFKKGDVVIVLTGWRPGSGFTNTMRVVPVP

Turning to `Cn1c2cc(B(O)O)sc2c2cnn(Cc3ccccc3F)c(=O)c21`, the result in data set [1] and in data set [3] was inactive. Further, the Activity in data set [2] is 101%.

As to `COC(=O)c1cc2c(s1)c1cnn(Cc3ccccc3F)c(=O)c1n2C`, the outcome in data set [1] and in data set [3] was inactive. For the same molecule, in data set [2], the Activity is 70%.

`Cc1cc2c(s1)c1cnn(-c3ccccc3)c(=O)c1n2C`: the outcome in data set [1], in data set [2] and in data set [3] was inactive.

With `Cn1c2ccsc2c2cnn(Cc3ccccc3F)c(=O)c21`, the result in data set [1] and in data set [3] was inactive. Also, the Activity in data set [2] was found to be 93%.

Regarding `Cc1cc2c(s1)c1cnn(Cc3cccc(Cl)c3)c(=O)c1n2C`, the outcome in data set [1] and in data set [3] was inactive. Besides, the Activity in data set [2] was determined as 99%.

Turning to `CC(=O)Nc1cc2c(s1)c1cnn(Cc3ccccc3F)c(=O)c1n2C`, the outcome in data set [1] and in data set [3] was inactive. Besides, the Activity in data set [2] was 59%.

Turning to `CC(C)c1cc2c(s1)c1cnn(Cc3ccccc3F)c(=O)c1n2C`, the result in data set [1] and in data set [3] was inactive. The Activity in data set [2] was 106%.

On to `Cc1cc2c(s1)c1cnn(Cc3ccc(F)cc3F)c(=O)c1n2C`, for which the outcome in data set [1] and in data set [3] was inactive.

For `Cc1cc2c(s1)c1c(C)nn(Cc3ccccc3F)c(=O)c1n2C`, the result in data set [1] and in data set [3] was inactive. The Activity in data set [2] is 56%.

In the case of `Cn1c2ccsc2c2ncn(Cc3ccccc3F)c(=O)c21`, the result in data set [1] and in data set [3] was inactive. Further, the Activity in data set [2] is 61%.

In the case of `Cn1c2cc(C=O)sc2c2cnn(Cc3ccccc3F)c(=O)c21`, the result in data set [1] and in data set [3] was inactive. Also, in data set [2], the Activity turned out to be 100%.

Regarding `Cc1cc2c(s1)c1cnn(Cc3c(F)cccc3F)c(=O)c1n2C`, the result in data set [1] and in data set [3] was inactive. The Activity in data set [2] is 94%.

In the case of `Cc1cc2c(s1)c1cnn(Cc3c(F)cccc3Cl)c(=O)c1n2C`, the result in data set [1] and in data set [3] was inactive. For the same molecule, in data set [2], the Activity was 93%.

For the molecule `CCn1c2cc(C)sc2c2cnn(Cc3ccccc3F)c(=O)c21`, the outcome in data set [1] and in data set [3] was inactive. Further, the Activity in data set [2] is 96%.

Take `COc1cccc(Cn2ncc3c4sc([S+](C)[O-])cc4n(C)c3c2=O)c1` (stereo not drawn): the outcome in data set [1] and in data set [3] was inactive. The Activity in data set [2] is 99%.

“Pyruvate kinase PKM (Homo sapiens), P14618”: the Km in data set [4] and in data set [5] was 100 µM each time.

With `COc1ccc(Cn2ncc3c4sc(C)cc4n(C)c3c2=O)cc1F`, the outcome in data set [1] and in data set [3] was inactive. Also, the Activity in data set [2] turned out to be 68%.

Regarding `Cn1c2cc([N+](=O)[O-])sc2c2cnn(Cc3ccccc3F)c(=O)c21`, the outcome in data set [1] and in data set [3] was inactive.

Regarding `Cc1cc2c(s1)c1cnn(Cc3ccc(F)c(F)c3F)c(=O)c1n2C`, the outcome in data set [1] and in data set [3] was inactive. The Activity in data set [2] came out at 69%.

Turning to `CSc1cc2c(s1)c1cnn(Cc3ccccc3F)c(=O)c1n2C`, the result in data set [1] and in data set [3] was inactive. Also, in data set [2], the Activity turned out to be 96%.

In the case of `CCCCCn1ncc2c3sc(C)cc3n(C)c2c1=O`, the outcome in data set [1] and in data set [3] was inactive. Moreover, the Activity in data set [2] is 47%.

Turning to `COc1cc2c(s1)c1cnn(Cc3ccccc3F)c(=O)c1n2C`, the result in data set [1] and in data set [3] was inactive.

In the case of `Cc1cc2c(s1)c1cnn(Cc3ccccc3F)c(=O)c1n2C(C)C`, the result in data set [1], in data set [2] and in data set [3] was inactive.

Regarding `Cc1cc2c(s1)c1cnn(Cc3ccc(Cl)cc3)c(=O)c1n2C`, the outcome in data set [1] and in data set [3] was inactive. In addition, the Activity in data set [2] turned out to be 91%.

For the molecule `Cn1c2cc([S+](C)[O-])sc2c2cnn(Cc3cccc(O)c3)c(=O)c21` (stereo not drawn), the outcome in data set [1] and in data set [3] was inactive. Besides, the Activity in data set [2] came out at 102%.

For the molecule `Cc1cc2c(s1)c1cnn(Cc3ccccc3F)c(=O)c1n2C`, the outcome in data set [1] and in data set [3] was inactive. The Activity in data set [2] came to 122%.

For the molecule `COc1ccc(Cn2ncc3c4sc(C)cc4n(C)c3c2=O)cc1`, the outcome in data set [1] and in data set [3] was inactive. In data set [2], the Activity was 96%.

With `CC(O)c1cc2c(s1)c1cnn(Cc3ccccc3F)c(=O)c1n2C` (stereo not drawn), the outcome in data set [1] and in data set [3] was inactive. For the same molecule, in data set [2], the Activity amounted to 120%.

For the molecule `Cn1c2cc([S+](C)[O-])sc2c2cnn(Cc3ccccc3F)c(=O)c21` (stereo not drawn), the result in data set [1] and in data set [3] was inactive. In data set [2], the Activity came out at 98%.

Regarding `Cn1c2cc(C#N)sc2c2cnn(Cc3ccccc3F)c(=O)c21`, the outcome in data set [1] and in data set [3] was inactive. Further, in data set [2], the Activity amounted to 84%.

With `Cc1cc2c(s1)c1cnn(Cc3ccc(C(F)(F)F)cc3F)c(=O)c1n2C`, the outcome in data set [1] and in data set [3] was inactive. Moreover, the Activity in data set [2] stood at 59%.

For `Cc1cc2c(s1)c1cnn(Cc3ccccc3Cl)c(=O)c1n2C`, the outcome in data set [1] and in data set [3] was inactive. Besides, the Activity in data set [2] came out at 96%.

As for `Cc1cc2c(s1)c1cnn(Cc3cccc(F)c3F)c(=O)c1n2C`, the result in data set [1] and in data set [3] was inactive. Also, the Activity in data set [2] was 73%.

As for `Cc1cc2c(s1)c1cnn(Cc3ccc(C(F)(F)F)cc3)c(=O)c1n2C`, the outcome in data set [1] and in data set [3] was inactive. Besides, the Activity in data set [2] stood at 56%.

Take `Cc1cc2c(s1)c1cnn(Cc3ccc(F)cc3)c(=O)c1n2C`: the outcome in data set [1] and in data set [3] was inactive. For the same molecule, in data set [2], the Activity is 102%.

On to `Cc1cc2c(s1)c1cnn(Cc3cccc(C)c3F)c(=O)c1n2C`, for which the result in data set [1] and in data set [3] was inactive. The Activity in data set [2] was determined as 97%.

Turning to `Cn1c2cc(S(C)(=O)=O)sc2c2cnn(Cc3ccccc3F)c(=O)c21`, the outcome in data set [1], in data set [2] and in data set [3] was inactive.

On to `Cn1c2cc(CO)sc2c2cnn(Cc3ccccc3F)c(=O)c21`, for which the outcome in data set [1] and in data set [3] was inactive. In data set [2], the Activity was determined as 103%.

With `Cc1ccc(Cn2ncc3c4sc(C)cc4n(C)c3c2=O)cc1`, the result in data set [1] and in data set [3] was inactive. Also, the Activity in data set [2] stood at 84%.

In the case of `Cc1cc2c(s1)c1cnn(Cc3ccccc3)c(=O)c1n2C`, the result in data set [1] and in data set [3] was inactive.

Consider `CCc1cc2c(s1)c1cnn(Cc3ccccc3F)c(=O)c1n2C`, for which the result in data set [1] and in data set [3] was inactive. For the same molecule, the Activity in data set [2] was found to be 105%.

As to `CC(=O)c1cc2c(s1)c1cnn(Cc3ccccc3F)c(=O)c1n2C`, the outcome in data set [1] and in data set [3] was inactive. Besides, the Activity in data set [2] is 108%.

Take `Cc1cc2[nH]c3c(=O)n(Cc4ccccc4F)ncc3c2s1`: the outcome in data set [1], in data set [2] and in data set [3] was inactive.

As to `Cc1cc2c(s1)c1cnn(Cc3cccc(F)c3)c(=O)c1n2C`, the outcome in data set [1] and in data set [3] was inactive. In addition, the Activity in data set [2] worked out at 92%.

Consider `Cc1cc2c(s1)c1cnn(Cc3c(F)c(F)cc(F)c3F)c(=O)c1n2C`, for which the result in data set [1] and in data set [3] was inactive. The Activity in data set [2] stood at 59%.

Take `Cc1ccc(Cn2ncc3c4sc(C)cc4n(C)c3c2=O)c(F)c1`: the outcome in data set [1] and in data set [3] was inactive. In addition, the Activity in data set [2] was determined as 81%.
